Laboratory results taken from patent publication US4065460A, “4,5,6,7-Tetrahydro-thieno[3,2-c]-pyridine derivatives and process for their preparation” (Parcor, priority 1975, dated 1977).
Like-named read-outs stand apart in the source and are kept apart here.

Legend:
[1] = test system: carrageenin-induced edema; assay: Localized carrageenin-induced edema method (anti-inflammatory action); format: in vivo; conditions: Rattus norvegicus, po, rats, 100 mg/kg orally (1 hour prior, simultaneously, 1 hour and 2.5 hours after)
Description: a. Localized carrageenin-induced edema method.
0.1 ml of a 1% carrageenin solution is injected at time 0 in the metatarsal flexor muscles of the right hind limb of rats. The animals of the treated group are administered orally, additionally, 100 mg/kg of the test derivative, respectively 1 hour prior to and then simultaneously with the phlogogenic agent, and then 1 hour and 2.5 hours thereafter. The determinations effected with a ROCH micrometer at times 0, 1 hour, 2 hrs, 3 hrs and 5 hrs after carrageenin administration make it possible to determine, as a function of time, the percent anti-inflammatory activity.

[2] = test system: mechanical stimulation (pressure forceps at the base of the tail); assay: Antalgic action, mechanical stimulation method according to Haffner; format: in vivo; conditions: mouse, 100 mg/kg oral
Description: This method comprises placing a pressure forceps at the base of the tail of a mouse and recording the number of bites self-inflicted by the animal in its endeavour to remove the forceps. The decrease of the number of bites prior to and subsequently to oral administration of the test compound at a dosage of 100 mg/kg provides a measure of the antalgic activity of the derivatives of this invention.

[3] = test system: Ovalbumin-induced systemic edema; assay: Ovalbumin-induced systemic edema method (anti-inflammatory action); format: in vivo; conditions: Rattus norvegicus, po, rats, 100 mg/kg orally (1 hour prior and simultaneously), with respect to control group
Description: b. Ovalbumin-induced systemic edema method
Rats are administered a simultaneous intraperitoneal injection of 1 ml ovalbumin and 0.5 ml of a 1% Evans Blue solution. The animals of the treated group are additionally administered orally 100 mg/kg of the test derivative, one hour prior to ovalbumin administration and then simultaneously with said ovalbumin administration. The intensity of the phenomenon thus induced is rated according to a scale from 1 to 5, according to the progress of the inflammatory syndrome. The measurements are effected after 2 hours and after 3 hours. Thus are determined the mean intensity of the edema and the percent decrease of the edema reaction with respect to the control group.

[4] = Acute intravenous toxicity (LD50, method according to MILLER and TAINTER); conditions: mouse, in vivo, Swiss mice, read-out: LD50 /24hrs/kg of the animal
[5] = after 1 hour, read-out: Percent anti-inflammatory activity after 1 hour
[6] = after 2 hours, read-out: Percent anti-inflammatory activity after 2 hours
[7] = after 5 hours, read-out: Percent anti-inflammatory activity after 5 hours
[8] = 0.5 h, after 30 min., read-out: mean percent antalgia after 30 min.
[9] = after 1 hr, read-out: mean percent antalgia after 1 hr
[10] = after 2 hrs, read-out: mean percent antalgia after 2 hrs
[11] = after 3 hrs, read-out: mean percent antalgia after 3 hrs
[12] = after 2 hrs, read-out: Percent decrease of the edema reaction after 2 hrs
[13] = after 3 hrs, read-out: Percent decrease of the edema reaction after 3 hrs

Structure (SMILES) | inhibition in vivo at 100 mg/kg [1, 5] [%] | inhibition in vivo at 100 mg/kg [1, 6] [%] | inhibition in vivo at 100 mg/kg [1, 7] [%] | inhibition in vivo at 100 mg/kg [2, 8] [%] | inhibition in vivo at 100 mg/kg [2, 9] [%] | inhibition in vivo at 100 mg/kg [2, 10] [%] | inhibition in vivo at 100 mg/kg [2, 11] [%] | inhibition in vivo at 100 mg/kg [3, 12] [%] | inhibition in vivo at 100 mg/kg [3, 13] [%] | LD50 at 24 h [4] [mg/kg]
CCOC1CNCc2ccsc21 (stereo not shown) [Derivative 2, 7-Ethoxy-4,5,6,7-tetrahydro-thieno[3,2-c]-pyridine] | 36 | 44 | 52 | 71 | 66 | 62 | 59 | 48 | 59 | 145
COC1(C)c2sccc2CNC1C (stereo not shown) [Derivative 9, 6,7-Dimethyl-7-methoxy-4,5,6,7-tetrahydro-thieno[3,2-c]-pyridine] | 44 | 52 | 62 | 68 | 63 | 56 | 49 | 50 | 63 | 175
c1ccc(COC2CNCc3ccsc32)cc1 (stereo not shown) [Derivative 4, 7-Benzyloxy-4,5,6,7-tetrahydro-thieno[3,2-c]-pyridine] | 42 | 50 | 60 | 75 | 69 | 66 | 57 | 53 | 64 | 95
CC(C)COC1CNCc2ccsc21 (stereo not shown) [Derivative 3, 7-Isobutoxy-4,5,6,7-tetrahydro-thieno[3,2-c]-pyridine] | 39 | 48 | 58 | 68 | 60 | 55 | 48 | 51 | 63 | 180
CCOC1c2sccc2CNC1C (stereo not shown) [Derivative 8, 7-Ethoxy-6-methyl-4,5,6,7-tetrahydro-thieno[3,2-c]-pyridine] | 38 | 53 | 61 | 71 | 65 | 59 | 50 | 44 | 56 | 129
CCOC1(C)CNCc2ccsc21 (stereo not shown) [Derivative 6, 7-Ethoxy-7-methyl-4,5,6,7-tetrahydro-thieno[3,2-c]-pyridine] | 40 | 49 | 61 | 66 | 60 | 55 | 48 | 44 | 58 | 224
COC1(C)CNCc2ccsc21 (stereo not shown) [Derivative 5, 7-Methoxy-7-methyl-4,5,6,7-tetrahydro-thieno[3,2-c]-pyridine] | 39 | 49 | 57 | 67 | 61 | 55 | 46 | 49 | 60 | 138
COC1c2sccc2CNC1c1ccccc1 (stereo not shown) [Derivative 10, 7-Methoxy-6-phenyl-4,5,6,7-tetrahydro-thieno[3,2-c]-pyridine] | 37 | 50 | 56 | 73 | 66 | 60 | 53 | 48 | 57 | 195
COC1c2sccc2CNC1C (stereo not shown) [Derivative 7, 7-Methoxy-6-methyl-4,5,6,7-tetrahydro-thieno[3,2-c]-pyridine] | 36 | 48 | 62 | 70 | 65 | 61 | 53 | 47 | 58 | 210
COC1CNCc2ccsc21 (stereo not shown) [Derivative 1, 7-Methoxy-4,5,6,7-tetrahydro-thieno[3,2-c]-pyridine] | 35 | 41 | 50 | 75 | 63 | 59 | 51 | 51 | 60 | 262
